# ChEMBL document CHEMBL3286192, “Late-Stage C-H Coupling Enables Rapid Identification of HDAC Inhibitors: Synthesis and Evaluation of NCH-31 Analogues” (ACS Med Chem Lett, 2014)
# Active and inactive are the calls of the source. No cut-off for these calls is given here.
# How the values were obtained:
# Histone deacetylase 9 [1] = target: T1, Histone deacetylase 9 (Homo sapiens, UniProt Q9UKV0); experiment: Inhibition of human HDAC9 at 0.1 uM by HDAC-Glo assay
# Histone deacetylase 1 [2] = target: T2, Histone deacetylase 1 (Homo sapiens, UniProt Q13547); experiment: Inhibition of human HDAC1 by HDAC-Glo assay
# T2 sequence (Q13547 whole entry): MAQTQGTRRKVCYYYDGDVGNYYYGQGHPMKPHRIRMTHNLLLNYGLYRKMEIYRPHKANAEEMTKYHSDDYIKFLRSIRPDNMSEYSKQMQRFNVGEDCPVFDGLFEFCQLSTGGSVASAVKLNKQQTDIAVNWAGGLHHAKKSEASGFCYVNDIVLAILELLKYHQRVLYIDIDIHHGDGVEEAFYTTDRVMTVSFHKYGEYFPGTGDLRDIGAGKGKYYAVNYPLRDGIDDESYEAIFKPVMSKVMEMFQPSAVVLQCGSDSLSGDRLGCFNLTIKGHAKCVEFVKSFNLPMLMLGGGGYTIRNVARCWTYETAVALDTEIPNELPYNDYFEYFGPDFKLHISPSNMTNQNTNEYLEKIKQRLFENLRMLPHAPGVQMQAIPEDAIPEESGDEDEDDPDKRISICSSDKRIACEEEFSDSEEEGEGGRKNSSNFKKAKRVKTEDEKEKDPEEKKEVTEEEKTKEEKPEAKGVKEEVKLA
# Histone deacetylase 1 [3] = target: T2, Histone deacetylase 1; conditions: at 0.1 µM
# Histone deacetylase 9 [4] = target: T1, Histone deacetylase 9; experiment: Inhibition of human HDAC9 by HDAC-Glo assay
# [5] = target: T3, Protein deacetylase HDAC6 (Homo sapiens, UniProt Q9UBN7); experiment: Inhibition of human HDAC6 by HDAC-Glo assay
# T3 sequence (Q9UBN7 whole entry): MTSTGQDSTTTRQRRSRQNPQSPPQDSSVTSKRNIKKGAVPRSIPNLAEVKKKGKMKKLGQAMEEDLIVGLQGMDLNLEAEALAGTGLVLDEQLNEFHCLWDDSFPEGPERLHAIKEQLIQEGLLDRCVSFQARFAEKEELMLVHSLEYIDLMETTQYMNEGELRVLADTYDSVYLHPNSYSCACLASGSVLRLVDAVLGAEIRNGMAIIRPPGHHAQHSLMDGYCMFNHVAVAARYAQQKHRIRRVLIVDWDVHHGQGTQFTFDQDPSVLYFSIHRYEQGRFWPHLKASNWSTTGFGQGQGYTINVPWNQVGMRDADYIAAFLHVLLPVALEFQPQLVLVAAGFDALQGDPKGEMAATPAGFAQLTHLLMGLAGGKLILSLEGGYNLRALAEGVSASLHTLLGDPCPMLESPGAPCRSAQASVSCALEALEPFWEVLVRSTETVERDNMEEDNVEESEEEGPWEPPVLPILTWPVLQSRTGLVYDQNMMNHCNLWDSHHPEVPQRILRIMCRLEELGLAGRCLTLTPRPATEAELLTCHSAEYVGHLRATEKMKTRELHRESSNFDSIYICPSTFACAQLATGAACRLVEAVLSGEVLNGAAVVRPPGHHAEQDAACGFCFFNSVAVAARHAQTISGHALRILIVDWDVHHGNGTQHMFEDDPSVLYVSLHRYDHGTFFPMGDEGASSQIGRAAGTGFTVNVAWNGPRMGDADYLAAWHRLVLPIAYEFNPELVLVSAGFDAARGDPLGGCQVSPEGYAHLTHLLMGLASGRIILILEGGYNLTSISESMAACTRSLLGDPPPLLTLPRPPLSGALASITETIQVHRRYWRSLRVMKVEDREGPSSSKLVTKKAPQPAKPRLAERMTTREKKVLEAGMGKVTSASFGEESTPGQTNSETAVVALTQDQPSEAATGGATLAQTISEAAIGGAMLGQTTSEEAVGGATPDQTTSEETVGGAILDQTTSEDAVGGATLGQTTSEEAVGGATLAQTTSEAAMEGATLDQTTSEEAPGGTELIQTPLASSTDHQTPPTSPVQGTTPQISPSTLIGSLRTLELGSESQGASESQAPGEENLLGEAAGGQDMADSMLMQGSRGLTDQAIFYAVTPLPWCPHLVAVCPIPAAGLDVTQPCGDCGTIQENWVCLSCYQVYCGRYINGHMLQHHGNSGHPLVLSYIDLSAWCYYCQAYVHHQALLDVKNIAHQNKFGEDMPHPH
# [6] = target: T4, Protein deacetylase HDAC6 (Homo sapiens) (UniProt Q9UBN7); experiment: Inhibition of human HDAC6 at 1 uM by HDAC-Glo assay
# T4 sequence (whole entry): T3 sequence (Q9UBN7 whole entry)
# T1 sequence (Q9UKV0 whole entry): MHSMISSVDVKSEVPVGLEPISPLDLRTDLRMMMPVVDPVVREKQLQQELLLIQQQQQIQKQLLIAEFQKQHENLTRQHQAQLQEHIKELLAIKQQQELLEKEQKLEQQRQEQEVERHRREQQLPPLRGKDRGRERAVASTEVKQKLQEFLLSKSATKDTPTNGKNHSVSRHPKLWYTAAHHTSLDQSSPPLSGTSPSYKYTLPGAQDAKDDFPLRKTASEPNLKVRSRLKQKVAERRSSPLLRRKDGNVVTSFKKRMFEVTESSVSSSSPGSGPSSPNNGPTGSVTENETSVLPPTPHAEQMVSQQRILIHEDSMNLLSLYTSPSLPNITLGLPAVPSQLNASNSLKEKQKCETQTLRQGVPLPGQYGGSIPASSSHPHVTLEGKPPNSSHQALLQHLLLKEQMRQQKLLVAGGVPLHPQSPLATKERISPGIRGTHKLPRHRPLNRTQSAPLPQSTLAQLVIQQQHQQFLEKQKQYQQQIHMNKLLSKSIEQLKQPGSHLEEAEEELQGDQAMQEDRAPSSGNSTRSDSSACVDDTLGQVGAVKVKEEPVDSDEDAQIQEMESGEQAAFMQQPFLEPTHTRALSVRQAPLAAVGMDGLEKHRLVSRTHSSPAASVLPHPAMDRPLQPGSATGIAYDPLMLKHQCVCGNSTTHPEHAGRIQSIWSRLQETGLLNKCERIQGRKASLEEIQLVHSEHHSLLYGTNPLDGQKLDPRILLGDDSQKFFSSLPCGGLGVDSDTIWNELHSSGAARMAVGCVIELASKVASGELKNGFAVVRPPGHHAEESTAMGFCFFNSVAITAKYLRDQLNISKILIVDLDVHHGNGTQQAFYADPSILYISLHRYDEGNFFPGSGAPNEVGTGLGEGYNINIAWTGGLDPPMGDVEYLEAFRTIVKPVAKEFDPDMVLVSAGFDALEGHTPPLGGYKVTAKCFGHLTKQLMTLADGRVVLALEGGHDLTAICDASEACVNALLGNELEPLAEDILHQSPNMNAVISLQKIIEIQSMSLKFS
inhibition (Histone deacetylase 9 [1]),IC50 (Histone deacetylase 1 [2]),inhibition (Histone deacetylase 1 [3]),IC50 (Histone deacetylase 9 [4]),IC50 [5],inhibition [6],Compound
–,–,Active,–,–,–,O=C(CCCCCCS)Nc1nc(-c2cccc(Cl)c2)cs1
–,–,Active,–,–,–,Cc1cccc(-c2csc(NC(=O)CCCCCCS)n2)c1
–,–,Active,–,–,–,COc1ccc(-c2csc(NC(=O)CCCCCCS)n2)cc1C
–,–,Active,–,–,–,COc1ccc(-c2csc(NC(=O)CCCCCCS)n2)cc1
–,–,Active,–,–,70%,COc1cccc(-c2csc(NC(=O)CCCCCCS)n2)c1
Active,49 nM,Active,78 nM,150 nM,70%,O=C(CCCCCCS)Nc1nc(-c2cccc(F)c2)cs1

# The remaining lines, values behind:
Compound,inhibition (Histone deacetylase 9 [1]),IC50 (Histone deacetylase 1 [2]),inhibition (Histone deacetylase 1 [3]),IC50 (Histone deacetylase 9 [4]),IC50 [5],inhibition [6]
Cc1ccc(-c2csc(NC(=O)CCCCCCS)n2)cc1,Active,57 nM,Active,42 nM,–,–
COc1c(C)cc(-c2csc(NC(=O)CCCCCCS)n2)cc1C,–,–,Active,–,–,–
O=C(CCCCCCS)Nc1nc(-c2ccc(F)cc2)cs1,Active,36 nM,Active,57 nM,550 nM,–
CC(C)(C)c1ccc(-c2csc(NC(=O)CCCCCCS)n2)cc1,–,–,Active,–,–,–
Cc1ccc(-c2csc(NC(=O)CCCCCCS)n2)cc1F,Active,50 nM,Active,62 nM,6100 nM,–
Cc1cc(C)cc(-c2csc(NC(=O)CCCCCCS)n2)c1,–,–,Active,–,–,–
O=C(CCCCCCS)Nc1nc(-c2ccccc2)cs1,–,96 nM,–,82 nM,230 nM,–
CN(C(=O)CCCCCCS)c1nc(-c2ccccc2)cs1,–,–,inactive,–,–,–
O=C(CCCCCCS)Nc1nc(-c2ccc(OC(F)(F)F)cc2)cs1,–,–,Active,–,–,–
CCCCc1ccc(-c2csc(NC(=O)CCCCCCS)n2)cc1,–,–,Active,–,–,–
COc1cc(OC)cc(-c2csc(NC(=O)CCCCCCS)n2)c1,–,–,Active,–,–,–
